Source: ChEMBL document CHEMBL4842359, “1,3-Diarylpyrazolyl-acylsulfonamides as Potent Anti-tuberculosis Agents Targeting Cell Wall Biosynthesis in Mycobacterium tuberculosis” (J Med Chem, 2021)
≈ marks a conversion by molar mass, not a printed value.

Key:
[1] = Thermodynamic solubility of compound at pH 7.4 aqueous phosphate buffer
[2] = Lipophilicity, logD of the compound at pH 7.4 by HPLC-DAD analysis; format: physicochemical; conditions: buffer
[3] = Metabolic stability in human liver microsomes assessed as compound remaining at 1 uM by LC-MS/MS analysis; format: ADME, Microsome; conditions: microsomes, 1 µM
[4] = Metabolic stability in rat liver microsomes assessed as compound remaining at 1 uM by LC-MS/MS analysis; format: ADME, Microsome; conditions: microsomes, 1 µM
[5] = Metabolic stability in mouse liver microsomes assessed as compound remaining at 1 uM by LC-MS/MS analysis; format: ADME, Microsome; conditions: microsomes, 1 µM
[6] = Plasma protein binding in human assessed as unbound fraction at 5 uM by LC-MS/MS analysis; format: ADME, cell-free; conditions: 5 µM
[7] = Terminal half life in iv dosed C57BL/6 mouse measured up to 24 hrs by LC-MS/MS analysis; format: ADME, organism-based; conditions: mouse, in vivo, 24 h
[8] = Unbound clearance in iv dosed C57BL/6 mouse measured up to 24 hrs by LC-MS/MS analysis; format: ADME, organism-based; conditions: in vivo
[9] = AUC (0 to t) in iv dosed C57BL/6 mouse measured up to 24 hrs by LC-MS/MS analysis; format: ADME, organism-based; design: time <=24; conditions: in vivo
[10] = system: Mycobacterium tuberculosis; experiment: microbe, parasite or virus in culture; conditions: H37Rv, 336 h
Description: Antimycobacterial activity against Mycobacterium tuberculosis H37Rv in presence of middlebrook 7H9/glucose/BSA/tyloxapol medium measured after 14 days by bioluminescence reporter assay

[11] = Volume of distribution in iv dosed C57BL/6 mouse measured up to 24 hrs by LC-MS/MS analysis; format: ADME, organism-based; conditions: in vivo

Row | SMILES | solubility thermodynamic [1] | MIC [10] | further results
1 | CS(=O)(=O)NC(=O)/C=C/c1cn(-c2ccc(Cl)cc2)nc1-c1ccncc1 | 90 µM (≈ 36.3 µg/mL) | 4.7 µM (≈ 1.89 µg/mL) | logD [2]: 0.98; Stabilty [3]: 88%; Stabilty [4]: 82%; Stabilty [5]: 85%; Fu [6]: 0.015 fraction; beta t1/2 [7]: 1.1 h; CL free [8]: > 1200 L/h/kg; AUCt [9]: 8.7 µmol·min/L
2 | CS(=O)(=O)NC(=O)CCc1cn(-c2ccc(C(F)(F)F)cc2)nc1-c1ccc(Cl)cc1 | 50 µM (≈ 23.6 µg/mL) | 3.1 µM (≈ 1.46 µg/mL) | 
3 | CS(=O)(=O)NC(=O)CCc1cc(-c2ccc(Br)cc2)n(-c2ccc(Cl)cc2)n1 | 170 µM (≈ 82.1 µg/mL) | > 50 µM | 
4 | O=c1[nH]c(CCc2cn(-c3ccc(Br)cc3)nc2-c2ccc(Cl)cc2)no1 | < 5 µM | 50 µM (≈ 22.3 µg/mL) | 
5 | O=C(O)CCc1cn(-c2ccc(Br)cc2)nc1-c1ccc(Cl)cc1 | 155 µM (≈ 62.9 µg/mL) | > 50 µM | 
6 | CC(Cc1cn(-c2ccc(Cl)cc2)nc1-c1ccncc1)C(=O)NS(C)(=O)=O (centres undefined) | 190 µM (≈ 79.6 µg/mL) | > 50 µM | 
7 | CS(=O)(=O)NC(=O)CCc1cn(-c2ccccc2)nc1-c1ccc(Cl)cc1 | 200 µM (≈ 80.8 µg/mL) | > 50 µM | 
8 | CS(=O)(=O)NC(=O)CCc1cn(-c2ccc(Br)cc2)nc1-c1ccccc1 | 200 µM (≈ 89.7 µg/mL) | 2.3 µM (≈ 1.03 µg/mL) | 
9 | CS(=O)(=O)NC(=O)CCc1cn(-c2ccc(Br)cc2)nc1-c1cnccn1 | 196 µM (≈ 88.3 µg/mL) | 20 µM (≈ 9.01 µg/mL) | 
10 | CCS(=O)(=O)NC(=O)CCc1cn(-c2ccc(Br)cc2)nc1-c1ccc(Cl)cc1 | 10 µM (≈ 4.97 µg/mL) |  | 
11 | CS(=O)(=O)NC(=O)CCc1cn(-c2cccc(Br)c2)nc1-c1ccc(Cl)cc1 | < 5 µM | > 50 µM | 
12 | CS(=O)(=O)NC(=O)CCc1cc(-c2ccc(Cl)cc2)nn1-c1ccc(F)cc1 | 195 µM (≈ 82.3 µg/mL) | 5.5 µM (≈ 2.32 µg/mL) | 
13 | CS(=O)(=O)NC(=O)CCc1cn(-c2ccc(C(F)(F)F)nc2)nc1-c1ccc(Cl)cc1 | 90 µM (≈ 42.6 µg/mL) | 4.7 µM (≈ 2.22 µg/mL) | logD [2]: 1.87; Stabilty [3]: 94%; Stabilty [4]: 98%; Stabilty [5]: 94%; Fu [6]: 0.036 fraction; beta t1/2 [7]: 3 h; Vd ([11]; mouse, 24 h): 8.7 L/kg; CL free [8]: 112.3 L/h/kg; AUCt [9]: 134 µmol·min/L
14 | O=c1[nH]nc(CCc2cn(-c3ccc(Br)cc3)nc2-c2ccc(Cl)cc2)o1 | < 5 µM | 19 µM (≈ 8.47 µg/mL) | 
15 | CS(=O)(=O)NC(=O)CCc1cn(-c2ccc(Br)cc2)nc1Cc1ccccc1 | 200 µM (≈ 92.5 µg/mL) | > 50 µM | 
16 | CS(=O)(=O)NC(=O)NCc1cc(-c2ccc(Br)cc2)oc1-c1ccncc1 | 25 µM (≈ 11.3 µg/mL) |  | logD [2]: 0.36; Stabilty [3]: 98%; Stabilty [4]: 87%; Stabilty [5]: 85%; CL free [8]: > 1200 L/h/kg; AUCt [9]: 20 µmol·min/L
17 | CS(=O)(=O)NC(=O)NCc1cn(-c2ccc(C(F)(F)F)nc2)nc1-c1ccncc1 | 195 µM (≈ 85.9 µg/mL) |  | 
18 | CS(=O)(=O)NC(=O)CCc1cn(-c2ccc(Br)cc2)nc1-c1ccc([N+](=O)[O-])cc1 | < 5 µM |  | 
19 | CS(=O)(=O)NC(=O)CCc1nn(-c2ccc(Br)cc2)cc1-c1ccc(Cl)cc1 | 135 µM (≈ 65.2 µg/mL) | 37 µM (≈ 17.9 µg/mL) | 
20 | C[S+]([O-])c1ccc(-n2cc(CCC(=O)NS(C)(=O)=O)c(-c3ccc(Cl)cc3)n2)cc1 (centres undefined) | 200 µM (≈ 93.2 µg/mL) | ≥ 50 µM | 
21 | CS(=O)(=O)NC(=O)OCc1cn(-c2ccc(Cl)cc2)nc1-c1ccncc1 |  | 123 µM (≈ 50 µg/mL) | logD [2]: 2.73; Stabilty [3]: 97%; Stabilty [4]: 97%; Stabilty [5]: 98%; Fu [6]: 0.03 fraction; beta t1/2 [7]: 5.8 h; Vd ([11]; C57BL/6, mouse, read-out: Vd): 0.1 L/kg; CL free [8]: > 1200 L/h/kg; AUCt [9]: 22 µmol·min/L
22 | CS(=O)(=O)NC(=O)CCCc1cn(-c2ccc(Br)cc2)nc1-c1ccc(Cl)cc1 | 135 µM (≈ 67.1 µg/mL) | 37 µM (≈ 18.4 µg/mL) | 
23 | CS(=O)(=O)NC(=O)CCn1nc(-c2ccc(Cl)cc2)cc1-c1ccc(Cl)cc1 | 200 µM (≈ 87.7 µg/mL) | > 50 µM | 
24 | CS(=O)(=O)NC(=O)C1CC1c1cn(-c2ccc(Cl)cc2)nc1-c1ccncc1 (centres undefined) | 200 µM (≈ 83.4 µg/mL) | 19 µM (≈ 7.92 µg/mL) | logD [2]: 1.06; Stabilty [3]: > 99%; Stabilty [4]: 92%; Stabilty [5]: 96%; Fu [6]: 0.01 fraction; beta t1/2 [7]: 0.9 h; CL free [8]: > 1200 L/h/kg; AUCt [9]: 21 µmol·min/L
25 | CS(=O)(=O)NC(=O)NCc1cn(-c2ccc(Cl)cc2)nc1-c1ccc(Cl)cc1 | < 5 µM | 3.13 µM (≈ 1.38 µg/mL) | 
26 | CC(CC(=O)NS(C)(=O)=O)c1cn(-c2ccc(Cl)cc2)nc1-c1ccncc1 (centres undefined) | 170 µM (≈ 71.2 µg/mL) | 50 µM (≈ 20.9 µg/mL) | 
27 | CN(C(=O)CCc1cn(-c2ccc(Br)cc2)nc1-c1ccc(Cl)cc1)S(C)(=O)=O | < 5 µM | > 50 µM | 
